Where a name gives a salt, the structure may show the parent alone.
Target: T1, μ-opioid receptor (Rattus norvegicus, UniProt P33535)
T1 construct: the forebrains are homogenized in Tris buffer in a Teflon®-glass homogenizer; from tissue; host or cells: forebrain of male Wistar rats (particulate membrane preparation)
Experiment: Rat brain μ-opioid receptor binding assay ([3H]DAMGO)
Conditions: 10 nM solutions of the compounds, read-out: MOR binding Ki
Method: Rat Brain μ-Opioid Receptor Binding Assay
Male, Wistar rats (150-250 g, VAF, Charles River, Kingston, N.Y.) are killed by cervical dislocation and their brains removed and placed immediately in ice cold Tris HCl buffer (50 mM, pH 7.4). The forebrains are separated from the remainder of the brain by a coronal transection, beginning dorsally at the colliculi and passing ventrally through the midbrain-pontine junction. After dissection, the forebrains are homogenized in Tris buffer in a Teflon®-glass homogenizer. The homogenate is diluted to a concentration of 1 g of forebrain tissue per 100 mL Tris buffer and centrifuged at 39,000×G for 10 min. The pellet is resuspended in the same volume of Tris buffer with several brief pulses from a Polytron homogenizer. This particulate preparation is used for the μ-opioid binding assays. […] The tubes and filters are rinsed three times with 4 mL of 10 mM HEPES (pH 7.4) and the radioactivity associated with the filter circles determined using Formula 989 scintillation fluid (New England Nuclear, Boston, Mass.) in a scintillation counter.
The data are used to calculate either the % inhibition compared to control binding (when only a single concentration of test compound is evaluated) or a Ki value (when a range of concentrations is tested).
% Inhibition is calculated as follows: [formula]
Ki value is calculated using the LIGAND (Munson, P. J. and Rodbard, D., Anal. Biochem. 107: 220-239, 1980) data analysis program.

T1 sequence (P33535 whole entry): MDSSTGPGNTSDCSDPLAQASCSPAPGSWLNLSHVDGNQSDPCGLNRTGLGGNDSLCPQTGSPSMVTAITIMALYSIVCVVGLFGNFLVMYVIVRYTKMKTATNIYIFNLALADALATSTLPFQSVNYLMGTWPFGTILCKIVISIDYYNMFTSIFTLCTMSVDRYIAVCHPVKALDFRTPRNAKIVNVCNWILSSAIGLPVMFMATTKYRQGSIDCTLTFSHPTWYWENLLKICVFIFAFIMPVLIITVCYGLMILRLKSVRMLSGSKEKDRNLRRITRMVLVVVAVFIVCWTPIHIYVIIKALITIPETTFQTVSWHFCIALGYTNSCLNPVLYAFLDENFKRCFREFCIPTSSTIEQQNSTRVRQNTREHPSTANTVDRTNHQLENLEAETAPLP

Row | Compound | Ki
1 | CCNC(=O)c1ccc(C(Br)=C2CC3CCC(C2)N3Cc2ccsc2)cc1 [Cpd 23] | 6.23 nM
2 | CCNC(=O)c1ccc(C(Br)=C2CC3CCC(C2)N3Cc2ccc(NC(C)=O)cc2)cc1 [Cpd 21] | 48.2 nM
3 | CCNC(=O)c1ccc(C(=C2CC3CCC(C2)N3Cc2ccsc2)c2ccc(CO)cc2)cc1 (single isomer, unassigned) [Cpd 206] | 80.1 nM
4 | CCNC(=O)c1ccc(C=C2CC3CCC(C2)N3Cc2ccc3ccccc3n2)cc1 [Cpd 35] | 532 nM
5 | CCNC(=O)c1ccc(C(=C2CC3CCC(C2)N3Cc2ccc(C(=O)O)o2)c2ccccc2)cc1 [Cpd 95] | 421 nM
6 | CCNC(=O)c1ccc(C(=C2CC3CCC(C2)N3C(=O)OCC)c2ccc(O)c(OC)c2)cc1 [Cpd 172, 3-[(4-Ethylcarbamoyl-phenyl)-(4-hydroxy-3-methoxy-phenyl)-methylene]-8-aza-bicyclo[3.2.1]octane-8-carboxylic acid ethyl ester] | 713 nM
7 | CCNC(=O)c1ccc(C=C2CC3CCC(C2)N3Cc2sccc2C)cc1 [Cpd 38] | 236 nM
8 | CCNC(=O)c1ccc(C(=C2CC3CCC(C2)N3Cc2ccco2)c2ccc([N+](=O)[O-])cc2)cc1 [Cpd 123] | 34.2 nM
9 | CCNC(=O)c1ccc(C=C2CC3CCC(C2)N3CCc2ccccc2)cc1 [Cpd 62] | 8.56 nM
10 | CCNC(=O)c1ccc(C(Br)=C2CC3CCC(C2)N3Cc2sccc2C)cc1 [Cpd 28] | 69.6 nM
11 | CCNC(=O)c1ccc(C(Br)=C2CC3CCC(C2)N3Cc2ccco2)cc1 [Cpd 24] | 21.7 nM
12 | CCNC(=O)c1ccc(C(=C2CC3CCC(C2)N3CC=C(C)C)c2cccc(C(=O)O)c2)cc1 (single isomer, unassigned) [Cpd 44] | 58.3 nM
13 | CCNC(=O)c1ccc(C(=C2CC3CCC(C2)N3Cc2ccccn2)c2ccc(C(N)=O)cc2)cc1 [Cpd 183] | 5050 nM
14 | CCNC(=O)c1ccc(C=C2CC3CCC(C2)N3Cc2cccs2)cc1 [Cpd 61] | 71.2 nM
15 | CCNC(=O)c1ccc(C(=C2CC3CCC(C2)N3CC=C(C)C)c2ccc(CO)cc2)cc1 [Cpd 194] | 3.67 nM
16 | CCNC(=O)c1ccc(C(=C2CC3CCC(C2)N3Cc2ccco2)c2nnn[nH]2)cc1 [Cpd 204] | 25300 nM
17 | CCNC(=O)c1ccc(C(=C2CC3CCC(C2)N3CCc2ccccc2)c2ccc(CCC(=O)O)cc2)cc1 [Cpd 135] | 318 nM

Same assay, conditions: MOR binding Ki

Row | Compound | Ki
18 | CCNC(=O)c1ccc(C(=C2CC3CCC(C2)N3Cc2ccc3ccccc3n2)c2cccc(C(=O)O)c2)cc1 [Cpd 85] | 537 nM
19 | CCNC(=O)c1ccc(C(=C2CC3CCC(C2)N3Cc2ccc3ccccc3n2)c2cccc(F)c2)cc1 [Cpd 3] | 74.1 nM
20 | CCNC(=O)c1ccc(C=C2CC3CCC(C2)N3Cc2ccco2)cc1 [Cpd 34] | 1420 nM
21 | CCNC(=O)c1ccc(C(=C2CC3CCC(C2)N3Cc2ccco2)c2cccc(-c3nnn[nH]3)c2)cc1 [Cpd 164, N-ethyl-4{(8-furan-2-ylmethyl-8-aza-bicyclo[3.2.1]oct-3-ylidene)-[3-(1H-tetrazol-5-yl)-phenyl]-methyl}-benzamide] | 2.32 nM
22 | CCNC(=O)c1ccc(C(=C2CC3CCC(C2)N3Cc2ccc3c(c2)OCO3)c2cccc3cccnc23)cc1 [Cpd 69] | 133 nM
23 | CCNC(=O)c1ccc(C(=C2CC3CCC(C2)N3Cc2ccoc2)c2ccc(C(N)=O)cc2)cc1 [Cpd 177] | 1.34 nM
24 | CCNC(=O)c1ccc(C(=C2CC3CCC(C2)N3CCc2ccccc2)c2cc(C(=O)O)cc([N+](=O)[O-])c2)cc1 [Cpd 157] | 8.57 nM
25 | CCNC(=O)c1ccc(C(=C2CC3CCC(C2)N3C(=O)c2ccoc2)c2cccnc2)cc1 [Cpd 214] | 580 nM
26 | CCNC(=O)c1ccc(C(=C2CC3CCC(C2)N3Cc2ccco2)c2ccc(CCC(=O)O)cc2)cc1 [Cpd 125] | 47.6 nM
27 | CCNC(=O)c1ccc(C(Br)=C2CC3CCC(C2)N3Cc2[nH]cnc2C)cc1 [Cpd 27] | 99.8 nM
28 | CCNC(=O)c1ccc(C(=C2CC3CCC(C2)N3Cc2ccc3ccccc3n2)c2cccc(C#N)c2)cc1 [Cpd 20] | 129 nM
29 | CCNC(=O)c1ccc(C(=C2C[C@H]3CC[C@@H](C2)N3Cc2ccsc2)c2ccc(CO)cc2)cc1 (single isomer, unassigned) [Cpd 196, N-Ethyl-4-[(4-hydroxymethyl-phenyl)-(8-thiophen-3-ylmethyl-8-aza-bicyclo[3.2.1]oct-3-ylidene)-methyl]-benzamide] | 4.1 nM
30 | CCNC(=O)c1ccc(C(=C2CC3CCC(C2)N3CCc2ccccc2)c2ccc(C(=O)O)cc2)cc1 [Cpd 99] | 5290 nM
31 | CCNC(=O)c1ccc(C(=C2CC3CCC(C2)N3Cc2csc([N+](=O)[O-])c2)c2cccnc2)cc1 [Cpd 74] | 37.5 nM
32 | CCNC(=O)c1ccc(C=C2CC3CCC(C2)N3Cc2ccccn2)cc1 [Cpd 56] | 1500 nM
33 | CCN(CC)C(=O)c1ccc(C(Br)=C2CC3CCC(C2)N3CCc2ccccc2)cc1 [Cpd 89, 4-[Bromo-(8-phenethyl-8-azabicyclo[3.2.1]oct-3-ylidene)-methyl]-N,N-diethylbenzamide] | 1010 nM
34 | CCNC(=O)c1ccc(C(=C2CC3CCC(C2)N3CC=C(C)C)c2ccc([N+](=O)[O-])cc2)cc1 [Cpd 136] | 3.03 nM
35 | CCNC(=O)c1ccc(C(=C2CC3CCC(C2)N3CCc2ccccc2)c2cc(N)cc(C(=O)O)c2)cc1 [Cpd 116] | 1510 nM
36 | CCNC(=O)c1ccc(C(=C2CC3CCC(C2)N3Cc2ccccn2)c2cccc3cccnc23)cc1 [Cpd 70] | 41.1 nM
37 | CCNC(=O)c1ccc(C(=C2CC3CCC(C2)N3Cc2ccoc2)c2cccc(CN)c2)cc1 [Cpd 153] | 71.1 nM
38 | CCNC(=O)c1ccc(C(=C2CC3CCC(C2)N3Cc2ccco2)c2ccc(CC(N)C(=O)O)cc2)cc1 (stereo not drawn) [Cpd 124] | 94.6 nM
39 | CCNC(=O)c1ccc(C(=C2CC3CCC(C2)N3Cc2nnn[nH]2)c2ccccc2)cc1 [Cpd 90, N-Ethyl-4-{phenyl-[8-(1H-tetrazol-5-ylmethyl)-8-aza-bicyclo[3.2.1]oct-3-ylidene]-methyl}-benzamide] | 406 nM

Row | Compound | Ki
40 | CCNC(=O)c1ccc(C=C2CC3CCC(C2)N3CCc2ccccc2)cc1 [Cpd 50, N-Ethyl-4-(8-phenethyl-8-aza-bicyclo[3.2.1]oct-3-ylidenemethyl)-benzamide] | 44.3 nM
41 | CCNC(=O)c1ccc(C(=C2CC3CCC(C2)N3CC=C(C)C)c2cccc(C(=O)O)c2)cc1 [Cpd 47, 3{(4-Ethylcarbamoyl-phenyl)-[8-(3-methyl-but-2-enyl)-8-aza-bicyclo[3.2.1]oct-3-ylidene]-methyl}-benzoic acid] | 125 nM
42 | CCNC(=O)c1ccc(C(=C2CC3CCC(C2)N3Cc2ccsc2)c2cccc(-c3nnn[nH]3)c2)cc1 (single isomer, unassigned) [Cpd 215] | 3120 nM
43 | CCNC(=O)c1ccc(C(=C2CC3CCC(C2)N3Cc2ccsc2)c2ccc([N+](=O)[O-])cc2)cc1 [Cpd 128] | 4.27 nM
44 | CCN(CC)C(=O)c1ccc(C(Br)=C2CC3CCC(C2)N3)cc1 [Cpd 49, 4-[(8-Aza-bicyclo[3.2.1]oct-3-ylidene)-bromo-methyl]-N,N-diethylbenzamide] | 100000 nM
45 | CCNC(=O)c1ccc(C(=C2CC3CCC(C2)N3Cc2ccoc2)c2ccc(CCC(=O)O)cc2)cc1 [Cpd 127] | 2.96 nM
46 | CCNC(=O)c1ccc(C(Br)=C2CC3CCC(C2)N3Cc2ccoc2)cc1 (single isomer, unassigned) [Cpd 212] | 38.5 nM
47 | CCNC(=O)c1ccc(C(=C2CC3CCC(C2)N3Cc2nccs2)c2ccc(C(=O)O)cc2)cc1 [Cpd 174] | 304 nM
48 | CCNC(=O)c1ccc(C=C2CC3CCC(C2)N3Cc2nccs2)cc1 [Cpd 133] | 581 nM
49 | CCNC(=O)c1ccc(C(=C2CC3CCC(C2)N3Cc2ccccn2)c2cccc(C(=O)O)c2)cc1 [Cpd 82] | 375 nM
50 | CCNC(=O)c1ccc(C(=C2CC3CCC(C2)N3Cc2[nH]cnc2C)c2ccc3c(c2)OCO3)cc1 [Cpd 11] | 46.2 nM
51 | CCNC(=O)c1ccc(C(=C2CC3CCC(C2)N3Cc2nccs2)c2cccc(C(=O)O)c2)cc1 [Cpd 102] | 1320 nM
52 | CCNC(=O)c1ccc(C=C2CC3CCC(C2)N3CC(N)Cc2ccccc2)cc1 (stereo not drawn) [Cpd 1, 4-[8-(2-Amino-3-phenyl-propyl)-8-aza-bicyclo[3.2.1]oct-3-ylidenemethyl]-N-ethyl-benzamide Hydrochloride] | 340 nM
53 | CCNC(=O)c1ccc(C(=C2CC3CCC(C2)N3Cc2ccco2)c2ccc3c(c2)OCO3)cc1 [Cpd 8] | 7.41 nM
54 | CCNC(=O)c1ccc(C(=C2CC3CCC(C2)N3CCc2ccccc2)c2ccc([N+](=O)[O-])cc2)cc1 [Cpd 134] | 7.57 nM
55 | CCNC(=O)c1ccc(C(=C2CC3CCC(C2)N3Cc2cccs2)c2cc(N)cc(C(=O)O)c2)cc1 [Cpd 120] | 5360 nM
56 | CCNC(=O)c1ccc(C=C2CC3CCC(C2)N3CCC(C#N)(c2ccccc2)c2ccccc2)cc1 [Cpd 106, 4-[8-(3-Cyano-3,3-diphenylpropyl)-8-aza-bicyclo[3.2.1]oct-3-ylidenemethyl]-N-ethyl-benzamide] | 53.6 nM
57 | CCNC(=O)c1ccc(C(=C2CC3CCC(C2)N3Cc2ccoc2)c2cnc3ccccc3c2)cc1 [Cpd 17] | 20.3 nM
58 | CCNC(=O)c1ccc(C(=C2CC3CCC(C2)N3Cc2ccccn2)c2ccc(C(=O)O)cc2)cc1 [Cpd 98] | 203 nM
59 | CCNC(=O)c1ccc(C(=C2CC3CCC(C2)N3Cc2ccsc2)c2nnn[nH]2)cc1 [Cpd 148] | 329 nM
60 | CCNC(=O)c1ccc(C(=C2CC3CCC(C2)N3Cc2ccc3ccccc3n2)c2ccc3c(c2)OCO3)cc1 [Cpd 9] | 34.1 nM

— patent publication US20050004163A1, “3-(diarylmethylene)-8-azabicyclo[3.2.1]octane derivatives” (priority 2000, published 2005)
